Data as given in ChEMBL document CHEMBL1177858, “Cytotoxicity and topo I targeting activity of substituted 10--nitrogenous heterocyclic aromatic group derivatives of SN-38” (Eur J Med Chem, 2010).

Legend:
[1] = target: T1, DNA topoisomerase 1 (Homo sapiens) (UniProt P11387); assay: Inhibition of topoisomerase 1-mediated supercoiled pBR322 relaxation assessed as change in band intensity by electrophoresis relative to camptothecin; further: test concentration or dose not given here
T1 sequence (whole entry): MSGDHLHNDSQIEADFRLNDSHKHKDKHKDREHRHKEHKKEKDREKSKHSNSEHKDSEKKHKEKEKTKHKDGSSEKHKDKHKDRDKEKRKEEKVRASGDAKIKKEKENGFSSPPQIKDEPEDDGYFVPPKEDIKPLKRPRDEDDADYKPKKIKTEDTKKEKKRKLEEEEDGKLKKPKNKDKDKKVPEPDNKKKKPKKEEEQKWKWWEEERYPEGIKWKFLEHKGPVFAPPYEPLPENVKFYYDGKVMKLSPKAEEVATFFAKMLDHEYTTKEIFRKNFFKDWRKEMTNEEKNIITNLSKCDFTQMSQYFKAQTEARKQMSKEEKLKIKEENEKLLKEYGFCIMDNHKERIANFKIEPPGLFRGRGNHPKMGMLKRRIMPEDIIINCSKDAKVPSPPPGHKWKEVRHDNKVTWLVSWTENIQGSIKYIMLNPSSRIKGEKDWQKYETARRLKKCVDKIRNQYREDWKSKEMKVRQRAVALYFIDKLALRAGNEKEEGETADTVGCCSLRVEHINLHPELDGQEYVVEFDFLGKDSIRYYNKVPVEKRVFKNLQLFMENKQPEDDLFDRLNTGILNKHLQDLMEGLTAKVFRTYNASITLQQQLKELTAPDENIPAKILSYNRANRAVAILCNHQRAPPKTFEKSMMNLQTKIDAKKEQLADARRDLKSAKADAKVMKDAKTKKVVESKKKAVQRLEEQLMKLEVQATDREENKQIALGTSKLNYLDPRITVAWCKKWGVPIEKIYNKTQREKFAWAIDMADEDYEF

MCF7 = assay: Cytotoxicity against human MCF7 cells after 3 days by MTT assay; type: functional, cell-based
HCT-8 = assay: Cytotoxicity against human HCT8 cells after 3 days by MTT assay; type: functional, cell-based
KB = assay: Cytotoxicity against human KB cells after 3 days by MTT assay; type: functional, cell-based

Row | Structure (SMILES) | fold change (FC) [1] | IC50 (MCF7) [nM/ml] | IC50 (HCT-8) [nM/ml] | IC50 (KB) [nM/ml]
1 | CC[C@@]1(O)C(=O)OCc2c1cc1n(c2=O)Cc2cc3cc(OCCCOc4cc(C(F)(F)F)ncn4)ccc3nc2-1 | 0.67 | 0.18 | 0.18 | –
2 | CC[C@@]1(O)C(=O)OCc2c1cc1n(c2=O)Cc2cc3ccccc3nc2-1 [CAMPTOTHECIN] | 1 | 0.02 | < 0.013 | < 0.013
3 | CC[C@@]1(O)C(=O)OCc2c1cc1n(c2=O)Cc2cc3c(CN(C)C)c(O)ccc3nc2-1 [TOPOTECAN] | – | 0.15 | 0.07 | 0.07
4 | CCc1c2c(nc3ccc(OCCCOc4cc(C(F)(F)F)ncn4)cc13)-c1cc3c(c(=O)n1C2)COC(=O)[C@]3(O)CC | 0.59 | 0.08 | 0.07 | 0.02
5 | CC[C@@]1(O)C(=O)OCc2c1cc1n(c2=O)Cc2cc3cc(OCCC[n+]4cccc(C)c4)ccc3nc2-1.[Br-] | 0.72 | – | < 0.01 | < 0.01
6 | CC[C@@]1(O)C(=O)OCc2c1cc1n(c2=O)Cc2cc3cc(OCC[n+]4cccc(F)c4)ccc3nc2-1.[Br-] | 0.85 | – | 0.73 | 0.68
7 | CC[C@@]1(O)C(=O)OCc2c1cc1n(c2=O)Cc2cc3cc(OCC[n+]4cccc(C)c4)ccc3nc2-1.[Br-] | 1.02 | – | 2.95 | 1.3
8 | CC[C@@]1(O)C(=O)OCc2c1cc1n(c2=O)Cc2cc3cc(OCC[n+]4cccc(C(C)=O)c4)ccc3nc2-1.[Br-] | 1.04 | – | 5.88 | 6.28
9 | CCc1c2c(nc3ccc(OCC[n+]4cccc(F)c4)cc13)-c1cc3c(c(=O)n1C2)COC(=O)[C@]3(O)CC.[Br-] | 1.07 | 0.25 | 0.1 | 0.19
10 | CCc1c2c(nc3ccc(OCC[n+]4cccc(C)c4)cc13)-c1cc3c(c(=O)n1C2)COC(=O)[C@]3(O)CC.[Br-] | 1.07 | 5.04 | 0.27 | 0.06
11 | CCc1c2c(nc3ccc(OCCC[n+]4cccc(CO)c4)cc13)-c1cc3c(c(=O)n1C2)COC(=O)[C@]3(O)CC.[Br-] | 0.95 | 1.38 | 0.13 | 0.52
12 | CCc1c2c(nc3ccc(OCCCn4ccnc4)cc13)-c1cc3c(c(=O)n1C2)COC(=O)[C@]3(O)CC | 1.01 | 0.16 | 0.06 | 0.32
13 | CC[C@@]1(O)C(=O)OCc2c1cc1n(c2=O)Cc2cc3cc(OCCCn4ccnc4)ccc3nc2-1 | 0.7 | 0.38 | 0.98 | –
14 | CCc1c2c(nc3ccc(OCC[n+]4ccccc4)cc13)-c1cc3c(c(=O)n1C2)COC(=O)[C@]3(O)CC.[Br-] | 1.12 | 1.56 | 0.52 | 0.08
15 | CCc1c2c(nc3ccc(OCCC[n+]4cccc(C)c4)cc13)-c1cc3c(c(=O)n1C2)COC(=O)[C@]3(O)CC.[Br-] | 0.97 | 0.11 | < 0.01 | < 0.01
16 | CCc1c2c(nc3ccc(OCCCn4cnc5cncnc54)cc13)-c1cc3c(c(=O)n1C2)COC(=O)[C@]3(O)CC | 0.72 | 1.23 | 0.88 | 0.13
17 | CCc1c2c(nc3ccc(OCCC[n+]4cccc(C(C)=O)c4)cc13)-c1cc3c(c(=O)n1C2)COC(=O)[C@]3(O)CC.[Br-] | 0.86 | 2.81 | 2.24 | 4.82
18 | CCc1c2c(nc3ccc(OCCC[n+]4cccc(F)c4)cc13)-c1cc3c(c(=O)n1C2)COC(=O)[C@]3(O)CC.[Br-] | 0.92 | 1.92 | 0.43 | 1.9
19 | CC[C@@]1(O)C(=O)OCc2c1cc1n(c2=O)Cc2cc3cc(OCC[n+]4cccc(CO)c4)ccc3nc2-1.[Br-] | 0.7 | – | 7.49 | 6.57
20 | CC[C@@]1(O)C(=O)OCc2c1cc1n(c2=O)Cc2cc3cc(OCCCn4cncn4)ccc3nc2-1 | 0.62 | 0.62 | 0.9 | –
21 | CCc1c2c(nc3ccc(OCCCn4cncn4)cc13)-c1cc3c(c(=O)n1C2)COC(=O)[C@]3(O)CC | 0.64 | 0.08 | 0.04 | 0.04
22 | CCc1c2c(nc3ccc(OCCC[n+]4ccccc4)cc13)-c1cc3c(c(=O)n1C2)COC(=O)[C@]3(O)CC.[Br-] | 0.96 | 0.14 | 0.04 | 0.02
23 | CC[C@@]1(O)C(=O)OCc2c1cc1n(c2=O)Cc2cc3cc(OCC[n+]4ccccc4)ccc3nc2-1.[Br-] | 1.03 | – | 0.97 | 0.72
24 | CC[C@@]1(O)C(=O)OCc2c1cc1n(c2=O)Cc2cc3cc(OCCC[n+]4ccccc4)ccc3nc2-1.[Br-] | 0.7 | – | 0.07 | 0.06
25 | CCc1c2c(nc3ccc(OCC[n+]4cccc(CO)c4)cc13)-c1cc3c(c(=O)n1C2)COC(=O)[C@]3(O)CC.[Br-] | 1.02 | 1.74 | 0.85 | 0.61
26 | CCc1c2c(nc3ccc(OCC[n+]4cccc(C(C)=O)c4)cc13)-c1cc3c(c(=O)n1C2)COC(=O)[C@]3(O)CC.[Br-] | 0.97 | 0.26 | 0.09 | 0.09
27 | CC[C@@]1(O)C(=O)OCc2c1cc1n(c2=O)Cc2cc3cc(OCCCn4cnc5cncnc54)ccc3nc2-1 | 0.61 | 2.09 | 1.81 | –
